PMC11642016 (International Journal of Molecular Sciences, 2024)
“And” between values parts separate entries of the source, which are not always exact repeats. Identical values can stand only once. Like-named read-outs stand apart in the source and are kept apart here.

Experiments:
in vitro [1] = details: human, fibroblast viability in the tested concentration range, dose–response range 26–0.7 µM
in vitro [2] = details: human, HEK293T WT Cell viability (% of controll), dose–response, individual replicates
Experimental: (§1) Primary fibroblast cultures were prepared from human skin biopsies and maintained in DMEM supplemented with 10% FBS, 1% penicillin-streptomycin, and 1% MEM Non-Essential Amino Acids Solution (Thermo Fisher Scientific). […] All cell lines were cultured in a humidified atmosphere at 37 °C and 5% CO2, passaged twice a week, and the experiments were performed on cells between passage 5 and 15. The cell lines were routinely screened for the absence of mycoplasma infection (DAPI staining).
(§2) The effects of the synthesized compounds on cell viability were measured using the CellTiter-Glo® luminescent cell viability assay (Promega, Madison, WI, USA), according to the manufacturer’s instructions. Briefly, cells were seeded onto a flat-bottomed, white 96-well plate (BRANDplates, cat. no.: 781965)), with the following densities: PANC-1: 750 cells/well, Fadu: 2000 cells/well, primary fibroblasts: 2000 cells/well, HEK293T WT: 1000 cells/well, HEK293T CLPP^−/−: 2500 cells/well. After seeding, cells were incubated for a further 48 h before treatment. Cells were treated with the compounds for 72 h. Three concentrations (25.0 µM; 8.3 µM; 2.8 µM) were applied during the initial cell viability screening, while for the determination of dose–response curves, 1.5-fold serially diluted compound concentrations were applied (range: 26 µM–0.7 µM). After treatment, the luminescence signal was recorded using a microplate reader (BioTek Synergy 2 Multi-Mode Reader, BioTek, Winooski, VT, USA).
(§3) Data analysis was performed using GraphPad Prism 9.5.0 software (GraphPad Software, San Diego, CA, USA). […] The dose–response curves were generated by four-parameter nonlinear regression, and the IC50 values were determined as the means ± SEM of the best-fit values of 3 independent measurements. The R^2 values were consistently above 0.93, indicating a strong fit of the model to the experimental data (Supplementary S.89). […] Dunnett’s post hoc test was applied to adjust for multiple comparisons, minimizing the likelihood of false positive results. Assumptions for ANOVA, including normality (assessed via QQ plots) and homogeneity of variance (tested using the Brown–Forsythe test), were verified. The following significance levels were applied: * p < 0.05, ** p < 0.01, *** p < 0.001, **** p < 0.0001. […] The tumor selectivity of the compounds was quantitatively characterized by the selectivity index (SI). This parameter was calculated as the ratio of the average best-fit IC50 value for primary fibroblasts and the best-fit IC50 value for the corresponding tumor cells (PANC-1 or Fadu).

HEK293T WT cells = assay: CellTiter-Glo cell viability assay, HEK293T WT; details: for HEK293T WT Cell viability (% of controll): dose–response, individual replicates
Experimental: as §1, §2, §3

Fadu cells = assay: CellTiter-Glo luminescent cell viability assay, Fadu; details: for viability at 2.8 µM: read-out: Cell Viability (% of Control) 2.8 µM, Fadu; for viability at 2.8 µM / viability at 8.3 µM / viability at 25 µM: mean ± SD, n = 2; for viability at 8.3 µM: read-out: Cell Viability (% of Control) 8.3 µM, Fadu; for viability at 25 µM: read-out: Cell Viability (% of Control) 25 µM, Fadu
PANC-1 cells = assay: CellTiter-Glo luminescent cell viability assay, PANC-1; details: for viability at 2.8 µM: read-out: Cell Viability (% of Control) 2.8 µM, PANC-1; for viability at 2.8 µM / viability at 8.3 µM / viability at 25 µM: mean ± SD, n = 2; for viability at 8.3 µM: read-out: Cell Viability (% of Control) 8.3 µM, PANC-1; for viability at 25 µM: read-out: Cell Viability (% of Control) 25 µM, PANC-1
[3] = 0.7 μM, 72 h, dose–response, individual replicates
[4] = 1 μM, 72 h, dose–response, individual replicates
[5] = 1.5 μM, 72 h, dose–response, individual replicates
[6] = 2.3 μM, 72 h, dose–response, individual replicates
[7] = 3.4 μM, 72 h, dose–response, individual replicates
[8] = 5.1 μM, 72 h, dose–response, individual replicates
[9] = 7.7 μM, 72 h, dose–response, individual replicates
[10] = 17.3 μM, 72 h, dose–response, individual replicates
[11] = 26 μM, 72 h, dose–response, individual replicates
[12] = Homo sapiens, FaDu, 72 h, 72 h, first-set screening
[13] = Homo sapiens, FaDu, 72 h, 72 h, second-set screening
[14] = Homo sapiens, PANC-1, 72 h, 72 h, first-set screening
[15] = Homo sapiens, PANC-1, 72 h, 72 h, second-set screening

Cc1ccccc1CN1C(=O)C2=C(CCN(Cc3ccccc3)C2)N2CCN=C12 [ONC201, reference compound]
viability at 72 h (in vitro [1]): > 50%
viability at 72 h, 0.6 µM (in vitro [2]; 0.6 μM): 60%
viability at 72 h, 1 µM (in vitro [2]; 1.0 μM): 30%
viability at 72 h, 1.6 µM (in vitro [2]; 1.6 μM): 28%
viability at 72 h, 2.5 µM (in vitro [2]; 2.5 μM): 21%
viability at 72 h, 4 µM (in vitro [2]; 4.0 μM): 19%
viability at 72 h, 6.4 µM (in vitro [2]; 6.4 μM): 18%
viability at 72 h, 16.25 µM (in vitro [2]; 16.25 μM): 15%
viability at 72 h, 26 µM (in vitro [2]; 26 μM): 15%
HEK293T WT Cell viability (% of controll) (HEK293T WT cells; 0.4 μM, 72 h): 105 % of controll and 96 % of controll and 95 % of controll
HEK293T WT Cell viability (% of controll) (HEK293T WT cells; 0.6 μM, 72 h): 70 % of controll and 65 % of controll and 68 % of controll
HEK293T WT Cell viability (% of controll) (HEK293T WT cells; 1.0 μM, 72 h): 32 % of controll and 31 % of controll
HEK293T WT Cell viability (% of controll) (HEK293T WT cells; 1.6 μM, 72 h): 25 % of controll and 29 % of controll
HEK293T WT Cell viability (% of controll) (HEK293T WT cells; 2.5 μM, 72 h): 19 % of controll and 22 % of controll and 23 % of controll
HEK293T WT Cell viability (% of controll) (HEK293T WT cells; 4.0 μM, 72 h): 19 % of controll and 22 % of controll and 20 % of controll
HEK293T WT Cell viability (% of controll) (HEK293T WT cells; 6.4 μM, 72 h): 19 % of controll and 22 % of controll and 20 % of controll
HEK293T WT Cell viability (% of controll) (HEK293T WT cells; 16.25 μM, 72 h): 18 % of controll and 19 % of controll
HEK293T WT Cell viability (% of controll) (HEK293T WT cells; 26 μM, 72 h): 15 % of controll and 16 % of controll and 18 % of controll
IC50 (HEK293T WT cells; Homo sapiens, HEK-293T, 72 h, read-out: IC50 (µM) HEK293T WT, 72 h treatment, ± SEM, best-fit values, n = 4): 0.6 ± 0.03 µM
IC50 (HEK293T WT cells; Homo sapiens, HEK-293T, read-out: HEK293T WT IC50 values, Mean, mean of independently fitted replicate IC50 values (Supplement S.6)): 0.56 µM
IC50 (HEK293T WT cells; Homo sapiens, HEK-293T, read-out: HEK293T WT IC50 values, individual replicates n1-n4, IC50 independently determined for each replicate measurement (Supplement S.6)): 0.394 µM
IC50 (HEK293T WT cells; read-out: HEK293T WT IC50 values, individual replicates n1-n4, IC50 independently determined for each replicate measurement (Supplement S.6)): 0.626 µM and 0.558 µM and 0.643 µM
Fadu Cell viability (% of controll) (Fadu cells; [3]): 93 % of controll
Fadu Cell viability (% of controll) (Fadu cells; [4]): 86 % of controll and 77 % of controll
Fadu Cell viability (% of controll) (Fadu cells; [5]): 59 % of controll and 51 % of controll
Fadu Cell viability (% of controll) (Fadu cells; [6]): 55 % of controll and 30 % of controll
Fadu Cell viability (% of controll) (Fadu cells; [7]): 26 % of controll
Fadu Cell viability (% of controll) (Fadu cells; [8]): 26 % of controll
Fadu Cell viability (% of controll) (Fadu cells; [9]): 28 % of controll and 27 % of controll
Fadu Cell viability (% of controll) (Fadu cells; [10]): 23 % of controll and 24 % of controll
Fadu Cell viability (% of controll) (Fadu cells; [11]): 22 % of controll and 24 % of controll
viability at 2.8 µM (Fadu cells; [12]): 31 ± 1%
viability at 2.8 µM (Fadu cells; [13]): 38 ± 5%
viability at 8.3 µM (Fadu cells; [12]): 29 ± 1%
viability at 8.3 µM (Fadu cells; [13]): 31 ± 2%
viability at 25 µM (Fadu cells; [12]): 27 ± 1%
viability at 25 µM (Fadu cells; [13]): 25 ± 3%
viability at 0.7 µM (Fadu cells; Homo sapiens, FaDu, 72 h, read-out: Fadu Cell viability (% of controll), 0.7 μM, 72 h, dose–response, individual replicates): 94%
viability at 1 µM (Fadu cells; Homo sapiens, FaDu, 72 h, read-out: Fadu Cell viability (% of controll), 1 μM, 72 h, dose–response, individual replicates): 85%
viability at 1.5 µM (Fadu cells; Homo sapiens, FaDu, 72 h, read-out: Fadu Cell viability (% of controll), 1.5 μM, 72 h, dose–response, individual replicates): 66%
viability at 3.4 µM (Fadu cells; Homo sapiens, FaDu, 72 h, read-out: Fadu Cell viability (% of controll), 3.4 μM, 72 h, dose–response, individual replicates): 40%
viability at 5.1 µM (Fadu cells; Homo sapiens, FaDu, 72 h, read-out: Fadu Cell viability (% of controll), 5.1 μM, 72 h, dose–response, individual replicates): 39%
viability at 7.7 µM (Fadu cells; Homo sapiens, FaDu, 72 h, read-out: Fadu Cell viability (% of controll), 7.7 μM, 72 h, dose–response, individual replicates): 38%
viability at 17.3 µM (Fadu cells; Homo sapiens, FaDu, 72 h, read-out: Fadu Cell viability (% of controll), 17.3 μM, 72 h, dose–response, individual replicates): 33%
viability at 26 µM (Fadu cells; Homo sapiens, FaDu, 72 h, read-out: Fadu Cell viability (% of controll), 26 μM, 72 h, dose–response, individual replicates): 31%
IC50 (Fadu cells; Homo sapiens, FaDu, 72 h, read-out: IC50 Value ± SEM Fadu, 72 h treatment, best-fit values, n = 3): 1.3 ± 0.15 µM
IC50 (Fadu cells; Homo sapiens, FaDu, read-out: Fadu IC50 values, Mean, mean of independently fitted replicate IC50 values (Supplement S.6)): 1.34 µM
IC50 (Fadu cells; Homo sapiens, FaDu, read-out: Fadu IC50 values, individual replicates n1-n3, IC50 independently determined for each replicate measurement (Supplement S.6)): 1.35 µM
IC50 (Fadu cells; read-out: Fadu IC50 values, individual replicates n1-n3, IC50 independently determined for each replicate measurement (Supplement S.6)): 1.41 µM and 1.26 µM
PANC-1 Cell viability (% of controll) (PANC-1 cells; [3]): 92 % of controll and 97 % of controll
PANC-1 Cell viability (% of controll) (PANC-1 cells; [4]): 102 % of controll and 101 % of controll
PANC-1 Cell viability (% of controll) (PANC-1 cells; [5]): 86 % of controll and 101 % of controll
PANC-1 Cell viability (% of controll) (PANC-1 cells; [6]): 78 % of controll and 84 % of controll
PANC-1 Cell viability (% of controll) (PANC-1 cells; [7]): 57 % of controll and 60 % of controll
PANC-1 Cell viability (% of controll) (PANC-1 cells; [8]): 51 % of controll and 54 % of controll
PANC-1 Cell viability (% of controll) (PANC-1 cells; [9]): 43 % of controll and 48 % of controll
PANC-1 Cell viability (% of controll) (PANC-1 cells; [10]): 37 % of controll and 35 % of controll
PANC-1 Cell viability (% of controll) (PANC-1 cells; [11]): 32 % of controll and 29 % of controll
viability at 2.8 µM (PANC-1 cells; [14]): 69 ± 1%
viability at 2.8 µM (PANC-1 cells; [15]): 59 ± 9%
viability at 8.3 µM (PANC-1 cells; [14]): 58 ± 1%
viability at 8.3 µM (PANC-1 cells; [15]): 35 ± 2%
viability at 25 µM (PANC-1 cells; [14]): 53 ± 2%
viability at 25 µM (PANC-1 cells; [15]): 22 ± 2%
IC50 (PANC-1 cells; Homo sapiens, PANC-1, 72 h, read-out: IC50 Value ± SEM PANC-1, 72 h treatment, best-fit values, n = 3): 3.1 ± 0.26 µM
viability at 0.7 µM (PANC-1 cells; Homo sapiens, PANC-1, 72 h, read-out: PANC-1 Cell viability (% of controll), 0.7 μM, 72 h, dose–response, individual replicates): 90%
viability at 1 µM (PANC-1 cells; Homo sapiens, PANC-1, 72 h, read-out: PANC-1 Cell viability (% of controll), 1 μM, 72 h, dose–response, individual replicates): 94%
viability at 1.5 µM (PANC-1 cells; Homo sapiens, PANC-1, 72 h, read-out: PANC-1 Cell viability (% of controll), 1.5 μM, 72 h, dose–response, individual replicates): 85%
viability at 2.3 µM (PANC-1 cells; Homo sapiens, PANC-1, 72 h, read-out: PANC-1 Cell viability (% of controll), 2.3 μM, 72 h, dose–response, individual replicates): 72%
viability at 3.4 µM (PANC-1 cells; Homo sapiens, PANC-1, 72 h, read-out: PANC-1 Cell viability (% of controll), 3.4 μM, 72 h, dose–response, individual replicates): 64%
viability at 5.1 µM (PANC-1 cells; Homo sapiens, PANC-1, 72 h, read-out: PANC-1 Cell viability (% of controll), 5.1 μM, 72 h, dose–response, individual replicates): 49%
viability at 7.7 µM (PANC-1 cells; Homo sapiens, PANC-1, 72 h, read-out: PANC-1 Cell viability (% of controll), 7.7 μM, 72 h, dose–response, individual replicates): 46%
viability at 17.3 µM (PANC-1 cells; Homo sapiens, PANC-1, 72 h, read-out: PANC-1 Cell viability (% of controll), 17.3 μM, 72 h, dose–response, individual replicates): 34%
viability at 26 µM (PANC-1 cells; Homo sapiens, PANC-1, 72 h, read-out: PANC-1 Cell viability (% of controll), 26 μM, 72 h, dose–response, individual replicates): 33%
IC50 (PANC-1 cells; Homo sapiens, PANC-1, read-out: PANC-1 IC50 values, Mean, mean of independently fitted replicate IC50 values (Supplement S.6)): 3.05 µM
IC50 (PANC-1 cells; Homo sapiens, PANC-1, read-out: PANC-1 IC50 values, individual replicates n1-n3, IC50 independently determined for each replicate measurement (Supplement S.6)): 3.22 µM
IC50 (PANC-1 cells; read-out: PANC-1 IC50 values, individual replicates n1-n3, IC50 independently determined for each replicate measurement (Supplement S.6)): 3.14 µM and 2.78 µM
